Data as given in patent US10131649B2, “Bicyclic compounds as pest control agents” (BAYER CROPSCIENCE AKTIENGESELLSCHAFT, priority 2014, dated 2018).
Like-named read-outs stand apart in the source and are kept apart here.

Legend:
[1] = test system: green peach aphid (Myzus persicae); assay: Myzus persicae spray test (Chinese cabbage leaf discs); format: in vivo; settings: foliar, 144 h, read-out: efficacy in %
Protocol: Myzus persicae—Spray Test
Solvent: • 78 parts by weight of acetone • 1.5 parts by weight of dimethylformamide
Emulsifier: alkylaryl polyglycol ether
To produce a suitable preparation of active compound, 1 part by weight of active compound is dissolved using the specified parts by weight of solvent and made up with water containing an emulsifier concentration of 1000 ppm until the desired concentration is attained. To produce further test concentrations, the formulation is diluted with emulsifier-containing water.
Discs of Chinese cabbage leaves (Brassica pekinensis) infested by all stages of the green peach aphid (Myzus persicae) are sprayed with an active compound formulation of the desired concentration.
After 6 days, the efficacy in % is determined. 100% means that all the aphids have been killed; 0% means that no aphids have been killed.

[2] = log P by HPLC on reversed-phase columns (OECD Guideline 117), [a] acidic pH 2.7, [b] neutral pH 7.8; format: physicochemical; settings: reversed-phase (C18) HPLC column
Protocol: The log P values were determined in accordance with OECD Guideline 117 (EC Directive 92/69/EEC) by HPLC (high-performance liquid chromatography) using reversed-phase (RP) columns (C18), by the following methods:
[a] The LC-MS determination in the acidic range is carried out at pH 2.7 with 0.1% aqueous formic acid and acetonitrile (contains 0.1% formic acid) as eluents; linear gradient from 10% acetonitrile to 95% acetonitrile.
[b] LC-MS determination in the neutral range is effected at pH 7.8 with 0.001 molar aqueous ammonium hydrogencarbonate solution and acetonitrile as eluents; linear gradient from 10% acetonitrile to 95% acetonitrile.
Calibration is carried out using unbranched alkan-2-ones (having 3 to 16 carbon atoms) with known log P values (log P values determined on the basis of the retention times by linear interpolation between two successive alkanones).

[3] = acidic pH 2.7, read-out: logP[a]
[4] = neutral pH 7.8, read-out: logP[b]

Structure (SMILES) | pest or weed control at 500 g/ha [1] | pest or weed control at 100 g/ha [1] | chromatographic logP [2, 3] | chromatographic logP [2, 4] | pest or weed control at 500 g/ha ([1]; application rate 500 g/ha, after 6 days, Chinese cabbage leaf discs, 100% = all aphids killed)
CN(C)C(=O)c1ccc2nn(-c3cccnc3)cc2c1 [Example 1] | 100% | – | – | – | –
O=C(NCC(F)(F)F)c1ccc2nn(-c3cccnc3)cc2c1 [Example 3] | 100% | – | – | – | –
CN(C)C(=O)c1ccc2nn(-c3cncc(F)c3)cc2c1 [Example 18] | 90% | – | – | – | –
O=C(NCC(F)(F)F)c1ccc2nn(-c3cncc(F)c3)cc2c1 [Example 19] | 90% | – | – | – | –
O=C(NCC(F)(F)F)c1ccc2nn(-c3cncnc3)cc2c1 [Example 26] | – | 90% | – | – | –
CN(C)C(=O)c1ccc2nn(-c3cncnc3)cc2c1 [Example 27] | 90% | – | – | – | –
CCNC(=O)c1ccc2nn(-c3cncnc3)cc2c1 [Example 29] | – | 90% | – | – | –
O=C(NCC(F)F)c1ccc2nn(-c3cncnc3)cc2c1 [Example 30] | 100% | – | – | – | –
CNC(=O)c1ccc2nn(-c3cncnc3)cc2c1 [Example 31] | 90% | – | – | – | –
CON(C)C(=O)c1ccc2nn(-c3cncnc3)cc2c1 [Example 32] | 100% | – | – | – | –
CC(F)(F)CNC(=O)c1ccc2nn(-c3cncnc3)cc2c1 [Example 33] | 100% | – | – | – | –
Cn1cc(-n2cc3cc(C(=O)NCC(F)(F)F)ccc3n2)cn1 [Example 37] | 90% | – | – | – | –
Cc1cc(F)c(-c2ccc3nn(-c4cccnc4)cc3c2)cc1SCC(F)(F)F [Example 49, 5-[2-Fluoro-4-methyl-5-(2,2,2-trifluoroethylsulphanyl)phenyl]-2-(3-pyridyl)indazole] | 90% | – | 4.23 | 4.11 | –
Cc1ccc(-c2ccc3nn(-c4cccnc4)cc3c2)cc1SCC(F)(F)F [Example 50, 5-[4-Methyl-3-(2,2,2-trifluoroethylsulphanyl)phenyl]-2-(3-pyridyl)indazole] | 100% | – | 4.12 | 4.07 | –
Cc1ccc(-c2ccc3nn(-c4cccnc4)cc3c2)cc1[S+]([O-])CC(F)(F)F (stereo not shown) [Example 53, 5-[4-Methyl-3-(2,2,2-trifluoroethylsulphinyl)phenyl]-2-(3-pyridyl)indazole] | 90% | – | 2.72 | 2.68 | –
Cc1cc(C)c([S+]([O-])CC(F)(F)F)cc1-c1ccc2nn(-c3cccnc3)cc2c1 (stereo not shown) [Example 54, 5-[2,4-Dimethyl-5-(2,2,2-trifluoroethylsulphinyl)phenyl]-2-(3-pyridyl)indazole] | 90% | – | 2.99 | 2.92 | –
FC(F)(F)c1cnn(-c2ccc3nn(-c4cccnc4)cc3c2)c1 [Example 55, 2-(3-Pyridyl)-5-[4-(trifluoromethyl)pyrazol-1-yl]indazole] | 90% | – | 2.77 | 2.74 | –
Cn1cc(-c2ccc3nn(-c4cccnc4)cc3c2)cn1 [Example 58, 5-(1-Methylpyrazol-4-yl)-2-(3-pyridyl)indazole] | 90% | – | 1.51 | 1.57 | –
c1ccc(-c2ccc3nn(-c4cccnc4)cc3c2)nc1 [Example 59, 5-(2-Pyridyl)-2-(3-pyridyl)indazole] | – | 90% | 1.13 | 1.93 | –
c1cnc(-c2ccc3nn(-c4cccnc4)cc3c2)nc1 [Example 60, 2-(3-Pyridyl)-5-pyrimidin-2-yl-indazole] | 90% | – | 1.72 | 1.73 | –
Clc1cccc(-c2ccc3nn(-c4cccnc4)cc3c2)n1 [Example 61] | 100% | – | 2.79 | 2.8 | –
CSCn1ccc(-c2ccc3nn(-c4cccnc4)cc3c2)n1 [Example 62] | 90% | – | 1.97 | 2.11 | –
CSCn1cc(-c2ccc3nn(-c4cccnc4)cc3c2)cn1 [Example 63] | 90% | – | 2.02 | – | –
Cc1cccc(-c2ccc3nn(-c4cccnc4)cc3c2)n1 [Example 64] | 90% | – | 1.06 | 2.41 | –
Cc1ccnc(-c2ccc3nn(-c4cccnc4)cc3c2)c1 [Example 66] | 90% | – | 0.97 | 2.2 | –
Clc1cccnc1-c1ccc2nn(-c3cccnc3)cc2c1 [Example 68] | 100% | – | 2.17 | 2.21 | –
Clc1ccnc(-c2ccc3nn(-c4cccnc4)cc3c2)c1 [Example 69] | 100% | – | 2.62 | 2.66 | –

Structure (SMILES) | pest or weed control at 500 g/ha [1] | pest or weed control at 100 g/ha [1] | chromatographic logP [2, 3] | chromatographic logP [2, 4] | pest or weed control at 500 g/ha ([1]; application rate 500 g/ha, after 6 days, Chinese cabbage leaf discs, 100% = all aphids killed)
Cn1ccc(-c2ccc3nn(-c4cccnc4)cc3c2)n1 [Example 71] | 90% | – | 1.58 | – | –
CCn1cc(-c2ccc3nn(-c4cccnc4)cc3c2)cn1 [Example 73] | 90% | – | 1.81 | 1.82 | –
C[S+]([O-])Cn1cc(-c2ccc3nn(-c4cccnc4)cc3c2)cn1 (stereo not shown) [Example 74] | 100% | – | 1.17 | 1.19 | –
CN(C(=O)c1ccc2nn(-c3cccnc3)cc2c1)C1CC1 [Example 75, N-Cyclopropyl-N-methyl-2-(pyridin-3-yl)-2H-indazole-5-carboxamide] | 90% | – | 1.47 | 1.5 | –
CCSc1cccnc1-c1ccc2nn(-c3cccnc3)cc2c1 [Example 77] | 90% | – | 2.53 | 1.93 | –
CCSc1cccc(-c2ccc3nn(-c4cccnc4)cc3c2)n1 [Example 79] | 100% | – | 3.57 | 3.57 | –
CCSc1ccc(-c2ccc3nn(-c4cccnc4)cc3c2)nc1 [Example 80] | 100% | – | 2.87 | 3.03 | –
O=C(c1ccc2nn(-c3cccnc3)cc2c1)N1CCS(=O)(=O)CC1 [Example 93] | – | – | 0.87 | 1.03 | –
c1cncc(-n2cc3cc(-c4cn[nH]c4)ccc3n2)c1 [Example 98, 5-(1H-Pyrazol-4-yl)-2-(pyridin-3-yl)-2H-indazole] | – | – | 1.27 | 1.3 | –
CSCC(C)C(=O)N(C)c1ccc2nn(-c3cnn(C)c3)cc2c1 (stereo not shown) [Example 105, N,2-Dimethyl-N-(2-(1-methyl-1H-pyrazol-4-yl)-2H-indazol-5-yl)-3-(methylthio) propanamide] | – | – | – | – | 90%
CSCCC(=O)N(C)c1ccc2nn(-c3cncc(F)c3)cc2c1 [Example 108] | 100% | – | – | – | –
CSCC(C)C(=O)N(C)c1ccc2nn(-c3cncc(F)c3)cc2c1 (stereo not shown) [Example 109] | 100% | – | – | – | –
CSCC(C)C(=O)N(C)c1ccc2nn(-c3cccnc3)cc2c1 (stereo not shown) [Example 110] | 90% | – | – | – | –
CSCCC(=O)N(C)c1ccc2nn(-c3cccnc3)cc2c1 [Example 111] | 90% | – | – | – | –
CN(C(=O)CC(C)(F)F)c1ccc2nn(-c3cccnc3)cc2c1 [Example 112] | 100% | – | – | – | –
CN(C(=O)CC(C)(F)F)c1ccc2nn(-c3cncc(F)c3)cc2c1 [Example 113] | 90% | – | – | – | –
Cc1ccc(C(=O)N(C)c2ccc3nn(-c4cncc(F)c4)cc3c2)cc1[S+]([O-])CC(F)(F)F (stereo not shown) [Example 114] | 90% | – | – | – | –
Cc1ccc(C(=O)N(C)c2ccc3nn(-c4cccnc4)cc3c2)cc1[S+]([O-])CC(F)(F)F (stereo not shown) [Example 115] | 100% | – | – | – | –
Cc1ccc(C(=O)N(C)c2ccc3nn(-c4cnn(C)c4)cc3c2)cc1[S+]([O-])CC(F)(F)F (stereo not shown) [Example 116] | 90% | – | – | – | –
Cc1cc(F)c(C(=O)N(C)c2ccc3nn(-c4cncc(F)c4)cc3c2)cc1[S+]([O-])CC(F)(F)F (stereo not shown) [Example 118] | 90% | – | – | – | –
CN(C(=O)CC[S+](C)[O-])c1ccc2nn(-c3cncc(F)c3)cc2c1 (stereo not shown) [Example 121] | 100% | – | – | – | –
CC(C[S+](C)[O-])C(=O)N(C)c1ccc2nn(-c3cncc(F)c3)cc2c1 (stereo not shown) [Example 122] | 100% | – | – | – | –
CN(C(=O)CC[S+](C)[O-])c1ccc2nn(-c3cccnc3)cc2c1 (stereo not shown) [Example 123] | 90% | – | – | – | –
CN(C(=O)CCS(C)(=O)=O)c1ccc2nn(-c3cncc(F)c3)cc2c1 [Example 128] | 100% | – | – | – | –
CN(C(=O)CCS(C)(=O)=O)c1ccc2nn(-c3cccnc3)cc2c1 [Example 129] | 90% | – | – | – | –
CC(CS(C)(=O)=O)C(=O)N(C)c1ccc2nn(-c3cccnc3)cc2c1 (stereo not shown) [Example 130] | 90% | – | – | – | –
